From ChEMBL document CHEMBL2169787, “The biology and chemistry of antifungal agents: a review” (2012) come the findings set out here.

Usually MIC stands for the lowest concentration found to suppress growth. Low values mean a more susceptible organism, high ones a less susceptible organism. Usually MIC50 stands for an inhibitory concentration at the 50% level, which refers to growth in some studies and to a panel of isolates in others. Read a high MIC50 as weaker potency.

Type in all cases: functional
Assay [1] concerns Fusarium verticillioides. The assay can be described thus: Antifungal activity against Fusarium moniliforme.
The subject of assay [2] is Lasiodiplodia theobromae. The assay can be described thus: Antifungal activity against Botryodiplodia theobromae.
Assay [3] relates to Aspergillus flavus. The assay is described as follows: Antifungal activity against Aspergillus flavus. Particulars: for MIC: Aspergillus flavus.
Assay [4] deals with Candida parapsilosis. The assay is described as follows: Antifungal activity against Candida parapsilosis. The settings on record: Lodderomyces parapsilosis.
For assay [5], the system named is Microsporum. The assay is described as follows: Antifungal activity against Microsporum […].
The subject of assay [6] is Candida tropicalis. The assay can be described thus: Antifungal activity against Candida tropicalis.
In assay [7] the test system is Cryptococcus neoformans. The assay is described as follows: Antifungal activity against Cryptococcus neoformans.
Assay [8] has as its system Trichophyton rubrum. The assay is described as follows: Antifungal activity against Trichophyton rubrum.
The test system of assay [9] is Aspergillus fumigatus. The assay is described as follows: Antifungal activity against Aspergillus fumigatus.
The test system of assay [10] is Trichophyton tonsurans. The assay is described as follows: Antifungal activity against Trichophyton tonsurans.
For assay [11], the system named is Candida. The assay is described as follows: Antifungal activity against Candida spp.
Assay [12] has as its system Staphylococcus aureus. The assay is described as follows: Antibacterial activity against Staphylococcus aureus.
Assay [13] relates to Mycobacterium tuberculosis. The assay can be described thus: Antibacterial activity against Mycobacterium tuberculosis.
In assay [14] the test system is Cryptococcus neoformans. The assay is described as follows: Antifungal activity against Cryptococcus neoformans after 72 hrs by NCCLS broth microdilution method.
In assay [15] the test system is Candida albicans. The assay can be described thus: Antifungal activity against Candida albicans. Particulars: Candida albicans.
Assay [16] in a line: Antifungal activity against Fonsecaea compacta.
Assay [17] has as its system Microsporum canis. The assay is described as follows: Antifungal activity against Microsporum canis.
In assay [18] the test system is Sporothrix schenckii. The assay can be described thus: Antifungal activity against Sporothrix schenckii.
In assay [19] the test system is Trichophyton mentagrophytes. The assay is described as follows: Antifungal activity against Trichophyton mentagrophytes.
In assay [20] the test system is Aspergillus niger. The assay can be described thus: Antifungal activity against Aspergillus niger.
The test system of assay [21] is Aspergillus niger. The assay can be described thus: Antifungal activity against Aspergillus niger assessed as growth inhibition.
Assay [22] concerns Aspergillus flavus. The assay can be described thus: Antifungal activity against Aspergillus flavus assessed as growth inhibition.
The test system of assay [23] is Aspergillus fumigatus. The assay is described as follows: Antifungal activity against Aspergillus fumigatus assessed as growth inhibition.

Values after ≈ are worked out from the molar mass of the structure shown.

In the case of `OCC1CC(c2ccc(-c3ccccc3)cc2)N(c2ccc(F)cc2)O1` (stereo not given), the MIC in [1], in assay [2] and in [3] was 2.5 µg/mL (≈ 7.16 µM) each time.

As for `OC(CN1CCN(c2ccc(OCc3ccncc3)cc2)CC1)(Cn1cncn1)c1ccccc1` (stereo not given), the minimum inhibitory concentration (MIC) in assay [4], in assay [5], in assay [6], in [7], in assay [8] and in assay [9] was 0.0625 µg/mL (≈ 0.133 µM) in each case.

For the compound `C[C@@H]1[C@H](O)[C@@H](C)/C=C/C=C/C=C/C=C/C=C/C=C/C=C/[C@H](O[C@@H]2O[C@H](C)[C@@H](O)[C@H](N)[C@@H]2O)C[C@@H]2O[C@](O)(C[C@@H](O)C[C@@H](O)[C@H](O)CC[C@@H](O)C[C@@H](O)CC(=O)O[C@H]1C)C[C@H](O)[C@H]2C(=O)O` [AMPHOTERICIN B], the MIC in [7] amounted to 0.13 µg/mL (≈ 0.141 µM).

Turning to `Clc1ccc(COC(Cn2ccnc2)c2ccc(Cl)cc2Cl)c(Cl)c1` (stereo not given) [MICONAZOLE], the MIC in [8] is 0.4 µg/mL (≈ 0.961 µM); in assay [10] it was 0.2 µg/mL (≈ 0.481 µM); in assay [11], 2 µg/mL (≈ 4.81 µM).

Regarding `NC(=S)N1N=C(c2ccc(Cl)cc2)CC1c1cccnc1` (stereo not given), the minimum inhibitory concentration (MIC) in [12] was determined as 128 µg/mL (≈ 404 µM); in assay [13] it was 6.25 µg/mL (≈ 19.7 µM).

Compound `CCOC(=O)C1C2(C(=O)N(c3ccccc3)N=C2C)C1(c1ccccc1)c1ccccc1` (stereo not given) returned an MIC in [11] of 25 µg/mL (≈ 58.9 µM).

Consider `CN(C/C=C/C#CC(C)(C)C)Cc1cccc2ccccc12` [TERBINAFINE], for which, in [14], the MIC50 is 0.25 µg/mL (≈ 0.858 µM).

For `N#Cc1ccc(N(CC(O)(Cn2cncn2)c2ccc(F)cc2F)C2CC2)cc1` (stereo not given), the minimal inhibitory concentration (MIC) in assay [4], in assay [6], in assay [7], in [15], in assay [8] and in assay [16] was 0.125 µg/mL (≈ 0.316 µM) each time. The minimum inhibitory concentration (MIC) in assay [17] and in [9] was 0.125 µg/mL (≈ 0.316 µM) in each case.

Consider `CC1=NN(c2ccccc2)C(=O)C12C(C(=O)OC(C)C)C2(c1ccccc1)c1ccccc1` (stereo not given), for which the MIC in assay [11] amounted to 25 µg/mL (≈ 57 µM).

As for `CCN(CC)C(=O)C1C2(C(=O)N(c3ccccc3)N=C2C)C1(c1ccccc1)c1ccccc1` (stereo not given), the MIC in assay [11] turned out to be 25 µg/mL (≈ 55.4 µM).

Turning to `O=C(O)CCSC1=C(CO)C(=O)c2ccccc2C1=O`, the MIC in [18], in [19], in assay [7], in assay [15], in assay [17] and in [9] was 0.78 µg/mL (≈ 2.67 µM) each time.

Regarding `O=C(Nc1ccccc1-c1nnc(-c2ccc(O)cc2)o1)c1ccccc1`, the entries for the “inhibition zone (IZ)” value in [3] and in assay [20] were 11 mm and 15 mm, respectively.

Turning to `CCC(C)n1ncn(-c2ccc(N3CCN(c4ccc(OCC5COC(Cn6cncn6)(c6ccc(Cl)cc6Cl)O5)cc4)CC3)cc2)c1=O` (stereo not given) [ITRACONAZOLE], the MIC in assay [4], in assay [5], in assay [6], in [7], in assay [8] and in [9] was 0.0625 µg/mL (≈ 0.0886 µM) throughout. In assay [11], this compound had an MIC of 2 µg/mL (≈ 2.83 µM).

With `CN(CC(O)(Cn1cncn1)c1ccc(F)cc1F)C1CC1` (stereo not given), the minimum inhibitory concentration (MIC) in [4], in [6], in assay [7], in [15], in [8] and in [16] was 0.125 µg/mL (≈ 0.405 µM) throughout. Further, the minimal inhibitory concentration (MIC) in assay [17] and in assay [9] was 0.125 µg/mL (≈ 0.405 µM) in each case.

The compound `CC1=NN(c2ccccc2)C(=O)C12C(C)(C(=O)OC(C)C)C2(c1ccccc1)c1ccccc1` (stereo not given) returned a minimum inhibitory concentration (MIC) in assay [11] of 25 µg/mL (≈ 55.2 µM).

With `Fc1ccc(N2OC(c3ccccc3)CC2c2ccc(-c3ccccc3)cc2)cc1` (stereo not given), the minimum inhibitory concentration (MIC) in assay [1], in assay [2] and in [3] was 2.5 µg/mL (≈ 6.32 µM) throughout.

With `N#CC(=C1CCCC1)c1nc2cc(Cl)ccc2o1`, the “growth inhibition (GI)” value in assay [21] and in assay [22] was 60% throughout.

For the compound `CCCCOc1ccccc1N1CCN(CCc2nnn(C(C)C(O)(Cn3cncn3)c3ccc(F)cc3F)n2)CC1` (stereo not given), the minimal inhibitory concentration (MIC) in assay [4], in assay [6], in assay [7] and in assay [15] was 1 µg/mL (≈ 1.72 µM) throughout.

For the compound `O=C(Nc1ccccc1-c1nnc(-c2ccccc2)o1)c1ccccc1`, the “inhibition zone (IZ)” value in assay [3] came to 11 mm; in [20] it was 15 mm.

Regarding `COC(=O)Nc1nc2ccccc2[nH]1` [CARBENDAZIM], the “growth inhibition (GI)” value in assay [21] is 90%; in assay [23], 92%.

The compound `COC(=O)C1C2(C(=O)N(c3ccccc3)N=C2C)C1(c1ccccc1)c1ccccc1` (stereo not given) came in with an MIC in assay [11] of 25 µg/mL (≈ 60.9 µM).

Regarding `COC(=O)C1(C)C2(C(=O)N(c3ccccc3)N=C2C)C1(c1ccccc1)c1ccccc1` (stereo not given), the MIC in [11] worked out at 25 µg/mL (≈ 58.9 µM).

Take `N=C1SC(c2ccc(Cl)cc2)c2cnn(C(=O)c3ccc(Cl)cc3)c2C1=N` (stereo not given): the “growth inhibition (GI)” value was found to be 60% in [21] and 61% in assay [23].

Take `NC(=O)c1ccc(COc2ccc(N3CCN(CC(O)(Cn4cncn4)c4ccccc4)CC3)cc2)cc1` (stereo not given): the MIC in [4], in assay [5], in assay [6], in [7], in [8] and in [9] was 0.0625 µg/mL (≈ 0.122 µM) each time.

As for `CCC(c1cccc2ccccc12)N(C)C/C=C/C#CC(C)(C)C` (stereo not given), the MIC50 in [14] was found to be 0.5 µg/mL (≈ 1.56 µM).
